Patent US7846971B2, “N-halogenated amino acids, N,N-dihalogenated amino acids and derivatives; compositions and methods of using them” (Novabay Pharmaceuticals, Inc., priority 2005, dated 2010)
Converted amounts (≈) assume the structure as drawn. Read-outs that look alike come from different tables or passages of the source.

Experiments:
[1] = tested on: human adenovirus type 5 (Ad5, McEwen strain); assay: Antiviral plaque assay on A549 cell monolayer; type: cell-based; details: virus mixed with sample 1 hr at 37C; for Effect on monolayer (plaques counted), 10^−0 undiluted: dilution 10^−0; for Effect on monolayer (plaques counted), 10^−1: dilution 10^−1; for Effect on monolayer (plaques counted), 10^−2: dilution 10^−2; for Effect on monolayer (plaques counted), 10^−3: dilution 10^−3; for Effect on monolayer (plaques counted), 10^−4: dilution 10^−4; for Effect on monolayer (plaques counted), 10^−5: dilution 10^−5; for Effect on monolayer (plaques counted), 10^−6: dilution 10^−6
Method: An equal volume of human adenovirus type 5 (Ad5, McEwen strain) was mixed with each of the three samples listed below. The mixtures were incubated at 37C for 1 hr and then diluted in tissue culture medium (Dulbecco's Modified Eagle Medium [DMEM] containing heat inactivated 2% fetal bovine serum). The mixtures were then diluted in 10-fold serial dilutions using the same diluent mentioned above. 0.1 ml of each diluted mixture was inoculated on to a A549 cell monolayer grown in 12 well plates (cell source, ATTC) and allowed to adsorb for 1 hr. The inoculum was removed and the monolayer rinsed with diluent and agarose/DMEM overlay applied. The plates were incubated at 37° C. in 5% CO2 atmosphere for 6 days. The monolayers were then fixed, stained and the plaques counted.

[2] = UV-vis spectrum and concentration of NNDCT solutions at varying pH; type: physicochemical; details: 1.49 mM, pH 3.0 to 5.0
Method: The spectra and the concentrations of the solutions were measured on the UV-vis spectrometer.
Add 8.8 g NaCl, 2 ml of 1.0 M HCl, and 0.278 g of taurine into a 1000-ml volumetric flask, followed by adding about 800 ml of deionized water into the flask. Shake the flask to dissolve NaCl and taurine powders. Then add […] of 0.15M of the NaOCl solution into the flask. Fill the flask up to the mark with deionized water. Stir the solution with a magnetic stirring bar for 5 minutes. The concentration and the pH of the resulting solution were measured on a UV-vis spectrometer and a freshly calibrated Beckman pH meter. This solution has a concentration of 1.49 mM and a pH value of 3.85. […] The final pH of this solution is 3.0. […] The final pH of this solution is 4.85.

[3] = pH=1.88, after 100 hours; cited from earlier work
[4] = tested on: Primary Human Skin Fibroblasts; assay: XTT cytotoxicity assay on primary human skin fibroblasts; type: cell-based
Method: Cytotoxicity was assessed by a colorimetric assay system, initially described by Scudiero et al., using 3′-(phenylamino-carbonyl)-3,4-tetrazolium-bis (4-methoxy-6-nitro) benzene sulfonic acid hydrate (XTT), ProCheck™ cell viability assay (Evaluation of a soluble tetrazolium/formazan assay for cell growth and drug sensitivity in culture using human and other tumor cell lines described by Scudiero D A, Shoemaker R A H, Paul K D, Monks A, Tierney S, Nofziger T H, Currens M J, Seniff D, Boyd M R. Cancer Res. 1988 Septmeber 1;48(17):4827-33). […] Three cell types were used: mouse lung epithelial cells (L929), primary human skin fibroblast and primary human keratinocyte cells cultured in Dulbecco Modified Eagle's Medium and Keratinocyte defined medium with corresponding growth factors plus antibiotics. Cells were trypsinized and counted under the microscope and seeded at 1000-to-2000 cells per well of a flat-bottom 96-well plate. Cells were allowed to grow over-night at 37° C. Next day, tissue culture media was removed and cells were rinsed with fresh media 1× and then left in 50 μL of tissue culture media. Test articles were prepared as 2-fold dilutions and 200 μL was added into each set of 4-wells (total volume per well=250 μL). Cells were exposed to test articles for 60 min at room temperature. Immediately after the exposed time, test article from each well was removed and cells were fed with 250 μL of fresh media. Plates were incubated at 37° C. for 18-20 hours. The following day media was removed again and replaced with 100 μL/well of fresh media containing 10/100 μL XTT-reagent. Cells were incubated under growth conditions (5% CO2 at 37° C. humidified incubator), protected from light, until color development was achieved. Absorbance was read at 450 nm with reference wavelength at 750 nm using Molecular Device ThermoMax Plate reader, blanking the plate on the medium-only assay blank wells. Untreated cells receiving XTT reagents-only served as positive cell proliferation control.

[5] = XTT cytotoxicity assay on L929 cells; type: cell-based; details: mouse
Method: Cytotoxicity was assessed by a colorimetric assay system, initially described by Scudiero et al., using 3′-(phenylamino-carbonyl)-3,4-tetrazolium-bis (4-methoxy-6-nitro) benzene sulfonic acid hydrate (XTT), ProCheck™ cell viability assay (Evaluation of a soluble tetrazolium/formazan assay for cell growth and drug sensitivity in culture using human and other tumor cell lines described by Scudiero D A, Shoemaker R A H, Paul K D, Monks A, Tierney S, Nofziger T H, Currens M J, Seniff D, Boyd M R. Cancer Res. 1988 Septmeber 1;48(17):4827-33). […] Three cell types were used: mouse lung epithelial cells (L929), primary human skin fibroblast and primary human keratinocyte cells cultured in Dulbecco Modified Eagle's Medium and Keratinocyte defined medium with corresponding growth factors plus antibiotics. Cells were trypsinized and counted under the microscope and seeded at 1000-to-2000 cells per well of a flat-bottom 96-well plate. Cells were allowed to grow over-night at 37° C. Next day, tissue culture media was removed and cells were rinsed with fresh media 1× and then left in 50 μL of tissue culture media. […] Absorbance was read at 450 nm with reference wavelength at 750 nm using Molecular Device ThermoMax Plate reader, blanking the plate on the medium-only assay blank wells. […]

[6] = Volatility test, tightly vs loosely capped bottles; type: physicochemical; details: 1.47 mM in 0.9% saline
Method: NNDCT is not volatile. A solution of 1.47 mM in 0.9% saline at pH 3.5 was filled in two glass bottles. One bottle was capped tightly and another was capped loosely.

[7] = tested on: Escherichia coli (ATCC 11229); assay: Bactericidal activity (colony count, MBC); type: cell-based
Method: To determine the bactericidal activity, we used Escherichia coli (ATCC 11229). The bacterial culture was diluted in sterile saline to prepare inocula. Various test articles were transferred to individual tubes already containing 1.0×10^5 to 2.0×10^5 Colony Forming Units (CFU)/mL bacteria and mixed by gentle vortexing and then incubated at 37° C. for 1 or 24 hours. In an attempt to mimic as far as possible the conditions, which could be produced in vivo if the test articles were used as antiseptics, bacterial plating in a Petri dish was performed immediately after the designated exposure time without the addition of a neutralizer, and independently with addition of neutralizer (as control). Thus, 0.1 mL was removed after 1 or 24 hours exposure times and plated. Plates were incubated at 37° C., and the numbers of bacteria were counted by direct colony count to numerate the surviving bacteria as CFU/mL. Positive growth controls were made with sterile 0.9% saline. All test articles were tested three times.

[8] = type: physicochemical
Source text: N,N-dichlorotaurine can be identified and quantitatively determined by UV spectroscopy.

[9] = type: physicochemical; remark: listed apart in the source
Source text: NNDCT and NCT are spectrophotometrically distinguishable. NCT has a maximum absorbance at 252 nm. […] The solution was sealed in ampoules.

[10] = Homo sapiens, Skin fibroblast, Table 2, pH 3.5, in vitro cytotoxicity, read-out: IC50
[11] = Escherichia coli, ATCC11229, Table 2, pH 3.5, read-out: MBC

CC(C)(CS(=O)(=O)O)N(Cl)Cl [Sample 1, N,N-dichloro-1,1-dimethylethanesulphonic acid]
Effect on monolayer (plaques counted), 10^−0 undiluted [1]: Early toxic
Effect on monolayer (plaques counted), 10^−1 [1]: 28
Effect on monolayer (plaques counted), 10^−2 [1]: 17
Effect on monolayer (plaques counted), 10^−3 [1]: 3
Effect on monolayer (plaques counted), 10^−4 [1]: 3
Effect on monolayer (plaques counted), 10^−5 [1]: 3
Effect on monolayer (plaques counted), 10^−6 [1]: 9

O=S(=O)(O)CCN(Cl)Cl [NNDCT, N,N-dichlorotaurine]
spectrum and concentration of NNDCT solution over pH range [2]: did not change
loss of N,N-dichlorotaurine [3]: less than 5%
IC50 [4, 10]: 1440 µg/mL (≈ 7430 µM)
viability at 60 min, 7 mM [5]: > 90%
volatility ([6]; pH 3.5): not volatile
difference in concentration between tightly and loosely capped bottle ([6]; pH 3.5, 4 weeks, room temperature): no difference
killing efficiency of NNDCT at pH 3.5 as compared to NCT at pH 9.5 ([7]; 60 min exposure, 37° C.): 1000 fold
killing efficiency of NNDCT at pH 3.5 over NNDCT at pH 5.0 ([7]; 60 min exposure, 37° C.): about 300 fold
MBC ([7]; Escherichia coli, ATCC11229, 1 h, pH 3.5, isotonic solution, 60 min, 37° C., read-out: MBC (Minimum Bactericidal Concentration)): 0.136 µg/mL (≈ 0.701 µM)
MBC ([7]; Escherichia coli, ATCC11229, 1 h, pH 5.0, isotonic solution, 60 min, 37° C., read-out: MBC (Minimum Bactericidal Concentration)): 38 µg/mL (≈ 196 µM)
MBC [7, 11]: 0.29 µg/mL (≈ 1.49 µM)
effectiveness against E. coli compared with HOCl ([7]; pH 3.5): better or as effective
solubility in water [8]: very soluble
loss of N,N-dichlorotaurine ([9]; solution in a vial stored in a refrigerator, three months): no more than 13%
NNDCT lost ([9]; solution pH 3.5, sealed ampoules, refrigerator (4° C.), 4 weeks, initial 1.47 mM): 5.4%

Povidone-Iodine [reference compound]
IC50 ([4]; Table 2, pH 4.2, in vitro cytotoxicity): 2.5 µg/mL
MBC ([7]; Table 2, pH 4.2): 0.38 µg/mL

OCl [HOCl, hypochlorous acid, reference compound]
IC50 [4, 10]: 47 µg/mL (≈ 896 µM)
MBC [7, 11]: 0.16 µg/mL (≈ 3.05 µM)
effective antimicrobial concentration range ([7]; pH 3.5, 60 min, 37° C.): ≥ 0.016 mM
effective antimicrobial concentration range ([7]; pH 3.5, 24 hrs, 37° C.): ≥ 0.0016 mM
Effect on monolayer (plaques counted), 10^−0 undiluted [1]: 14
Effect on monolayer (plaques counted), 10^−1 [1]: 9
Effect on monolayer (plaques counted), 10^−2 [1]: 3
Effect on monolayer (plaques counted), 10^−3 [1]: 1
Effect on monolayer (plaques counted), 10^−4 [1]: 4
Effect on monolayer (plaques counted), 10^−5 [1]: 4
Effect on monolayer (plaques counted), 10^−6 [1]: 1

O=S(=O)(O)CCNCl [NCT, N-chlorotaurine]
factor by which less antimicrobial than NNDCT on an equal concentration basis [7]: 1000 fold
MBC ([7]; Escherichia coli, ATCC11229, 1 h, pH 9.5, read-out: MBC (Minimum Bactericidal Concentration)): 142 µg/mL (≈ 893 µM)
